Measured values taken from ChEMBL document CHEMBL1201862, “PubChem BioAssay data set” (2004).
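The compound was tested at five concentrations on cells cultured in 96-well plates, with a 48-hour exposure period. GI50 = concentration required for 50% inhibition of growth.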 Calls of active or inactive are those of the source. Cut-off read from the data, not from the text of the source: active = GI50 up to about 1.1 µM and inactive = higher.

Assays:
Assay in all cases: NCI-60 cell line screen, 48 h
[1] = tested on: EKVX
[2] = tested on: NCI/ADR-RES
[3] = tested on: K562
[4] = tested on: SK-MEL-28
[5] = tested on: NCI-H226
[6] = tested on: OVCAR-5
[7] = tested on: SF-268
[8] = tested on: SF-539
[9] = tested on: Malme-3M
[10] = tested on: MDA-MB-435
[11] = tested on: NCI-H23
[12] = tested on: A549
[13] = tested on: A498
[14] = tested on: HCT-116
[15] = tested on: 786-0
[16] = tested on: CAKI-1
[17] = tested on: IGROV-1
[18] = tested on: RXF 393
[19] = tested on: SNB-19
[20] = tested on: T47D

Measured: GI50

Nn1c(=O)[nH]c2ncn(Cc3ccccc3)c2c1=O
inactive: [1] > 100 µM | [2] > 100 µM | [3] > 100 µM | [4] > 100 µM | [5] > 100 µM | [6] > 100 µM | [7] > 100 µM | [8] > 100 µM | [9] > 100 µM | [10] > 100 µM | [11] > 100 µM | [12] > 100 µM | [13] > 100 µM | [14] > 100 µM | [15] > 100 µM | [16] > 100 µM | [17] > 100 µM | [18] > 100 µM | [19] > 100 µM | [20] > 100 µM

C[N+]1(CCC(=O)c2ccccc2)CCC2CCC(C2)C1 (stereo not given)
inactive: [1] > 100 µM | [2] > 100 µM | [3] > 100 µM | [4] > 100 µM | [5] > 100 µM | [6] > 100 µM | [7] > 100 µM | [8] > 100 µM | [9] > 100 µM | [10] > 100 µM | [11] > 100 µM | [12] > 100 µM | [13] > 100 µM | [14] > 100 µM | [15] > 100 µM | [16] > 100 µM | [17] > 100 µM | [18] > 100 µM | [19] > 100 µM | [20] > 100 µM

O=C1NC(=S)N(c2cccc3ccccc23)C(=O)/C1=C/c1c[nH]c2ccccc12
inactive: [1] 2.06 µM | [2] 3 µM | [3] 2.38 µM | [4] 2.26 µM | [5] 2.42 µM | [6] 2.4 µM | [7] 2.64 µM | [8] 2.23 µM | [9] 2.23 µM | [10] 2.34 µM | [11] 1.81 µM | [12] 5.12 µM | [13] 2.05 µM | [14] 2.01 µM | [15] 1.71 µM | [16] 2.54 µM | [17] 2.03 µM | [18] 1.91 µM | [19] 3.08 µM | [20] 3.89 µM

CC(=O)N(C)c1ccc(/N=C/N(C)C)cc1
inactive: [1] > 100 µM | [2] > 100 µM | [3] > 100 µM | [4] > 100 µM | [5] > 100 µM | [6] > 100 µM | [7] > 100 µM | [8] > 100 µM | [9] > 100 µM | [10] > 100 µM | [11] > 100 µM | [12] > 100 µM | [13] > 100 µM | [14] > 100 µM | [15] > 100 µM | [16] > 100 µM | [17] > 100 µM | [18] > 100 µM | [19] > 100 µM | [20] > 100 µM

CCOP(=O)(OCC)C1=C(c2ccccc2)OC(N)=C(C#N)C1c1ccc(Cl)cc1 (stereo not given)
inactive: [1] > 100 µM | [2] > 100 µM | [3] > 100 µM | [4] > 100 µM | [5] > 100 µM | [6] > 100 µM | [7] 38.1 µM | [8] 66.1 µM | [9] > 100 µM | [10] > 100 µM | [11] > 100 µM | [12] > 100 µM | [13] > 100 µM | [14] > 100 µM | [15] > 100 µM | [16] > 100 µM | [17] > 100 µM | [18] > 100 µM | [19] > 100 µM | [20] > 100 µM

CCOC(=O)/C=C(/OCC)[C@@H]1C(C(=O)c2ccc(Cl)cc2)[C@@H]1/C(=C\C(=O)OCC)OCC (stereo not given in full)
inactive: [1] 14.5 µM | [2] 3.6 µM | [3] 2.62 µM | [4] 41.7 µM | [5] 6.27 µM | [6] 30.6 µM | [7] 45 µM | [8] 22.1 µM | [9] 16.8 µM | [10] 6.58 µM | [11] 11.7 µM | [12] 10.9 µM | [13] 8.89 µM | [14] 5.18 µM | [15] > 33.7 µM | [16] 16.9 µM | [17] 56.5 µM | [18] 14.3 µM | [19] 11.9 µM | [20] 6.01 µM
